Data on two compounds can be found in publication PMC8110578, “Phenylethynylbenzyl-modified biguanides inhibit pancreatic cancer tumor growth” (Scientific Reports, 2021).

“And” between values parts separate entries of the source, which are not always exact repeats. Equal entries are not always repeated.

The nature of data set [1]: U-tube experiment (partition across a bulk hydrophobic solvent). It counts as physicochemical. Conditions: 250 µM on cis side; for Crossing to the trans-aqueous side of the U-tube (in words): up to 72 h; for Trans-side concentration, mean / Trans-side concentration, single replicates: 25°C. The method, then:
(§1) Figure 2 (A) Partition of compounds in an U-tube experiment. Concentration of biguanide on the trans-side of the U-tube at 48 h and 72 h at 25 °C, after addition of 250 µM of biguanide on the cis-side. (B) Variation in the internal pH of HPTS-containing EYPC liposomes. Intravesicular solution: 1 mM HPTS, 10 mM HEPES, and 100 mM NaCl, adjusted to pH = 7.4, and extravesicular solution: 10 mM HEPES and 100 mM NaCl, adjusted to pH = 7.4. Biguanidiums were injected after 50 s at 5 mM (50 mol% relative to the 10 mM EYPC concentration), a NaOH pulse was induced at 300 s, and the liposomes were lysed with Triton-X at 550 s. Each curve is the average of three independent measurements. (C) Fluorescence of safranin O in the EYPC liposomes. Biguanidium salts were injected at 5 mM (50 mol% relative to the 10 mM EYPC concentration) at 50 s. Each curve is the average of three independent measurements. […] Mitochondrial isolation was performed according to the previously reported protocol.
Experimental. U-tube experiment was prepared by adding 800 µL of dichloromethane in a U-shaped tube as a representation of the hydrophobic lipid membrane. On the receiving end (trans side) of the tube was added 300 µL of distilled water while the other side (cis side) was filled with 300 µL of a 250 µM solution of the compound of interest at 25°C. At 48h and 72h, 100 µL aliquot of the trans side was diluted in 900 µL methanol and monitored by LCMS (292 m/z). Area under curve (AUC) was measured and fitted on a calibration curve.

Data set [2] relates to Panc1 cells. In words: Growth assay (crystal violet), Panc1 cells. It counts as cell-based. Conditions: Homo sapiens, PANC-1, 72 h.
Data set [3] relates to NB508 mouse pancreatic ductal adenocarcinoma cells. Put plainly: In vitro growth inhibition screen at 5 µM, NB508 cells. It counts as cell-based. Conditions: 72 h at 37 °C. The source says:
Figure 1 (A) Structure and crystal packing of previously studied PEB-disubstituted (A.1) and monosubstituted (A.2 and A.3) benzimidazolium salts. Compound A.1 is an efficient chloride transporter forming channels and generating holes in bacterial membranes and red blood cellular membranes. Compound A.2 penetrates phospholipid membranes but is less efficient as ion transporter as it forms more compact aggregates; its toxicity on RBC is lower than compound A.1. The replacement of the phenyl group with a methyl group in compound A.3 results in the formation of even more compact aggregates with even lower toxicity on RBC. (B) Structure of PEB-substituted biguanidium salts. For each biguanide we prepared three series of biguanidium salts with different counterions. (C) Synthesis of 4-(phenylethynyl)benzylbiguanide 1 and 4-(phenylethyl)benzylbiguanide 2; (a) Phenylacetylene, PdCl2PPh3, CuI, PPh3, Et3N, THF, 70 °C, o.n. (b) NaCN(BH3)3, EtOHNH4OAc sat./NH3, 80 °C, o.n (c) Dicyandiamide, TMSCl, THFanh., 145 °C, 1 h (d) Pd/C 10%, H2, EtOH/AcOEt, 60 °C, 2 h. (D) Synthesis of 4-(phenylethynylphenyl)biguanidium 3 and 4-(phenylethylphenyl)biguanidium 4 (a) (1) Boc2O, THF, 2 h, (2) Phenylacetylene, PdCl2PPh3, CuI, PPH3, Et3N, THF, 70°, o.n. (b) TFA, DCM, 60 °C, 2 h (c) Dicyandiamide, TMSCl, THFanh, 145 °C, 1 h (d) Pd/C 10%, H2, EtOH/AcOEt, 60 °C, 2 h. The NMR spectra of the synthesized compounds are given in Supplementary Figs. S1–S24. (E) Relative growth of NB508 mouse pancreatic ductal adenocarcinoma cells and IMR90 fibroblasts exposed to 5 µM of PEB-biguanidium salts. Cells were incubated for 72 h at 37 °C. Errors bars represent the standard error of the mean (SEM), *p < 0.05, **p < 0.01, Student’s t test. (F) Crystal structure of 1b showing its self-assembly in the solid state. Crystal data is available in Supplementary Tables S1–S8 and crystal packing in Supplementary Fig. S25. TEXT PRINTED IN THE PICTURE: (A) A.1: HC50: 0.15 mM | (A) A.2: HC50: 1 mM | (A) A.3: HC50: 150 mM
NB508 is an aggressive pro-metastatic pancreatic cancer cell line that we used previously to study the role of mitochondria in pancreatic cancer. […].

A short description of data set [4]: Lucigenin assay, chloride transport in EYPC liposomes. Conditions: lucigenin-containing liposomes. The source says: Phospholipid vesicles can be used as models for studying membrane insertion and permeabilization. Using an anion-selective probe in synthetic phospholipid liposomes, anion transport can be monitored by fluorescence. […] This basification was further enhanced with the addition of a base pulse to the external solution at 300 s, indicating either a transport of protons to the extravesicular solution, or the transport of hydroxyls to the intravesicular solution. This was also reported for alkylbiguanidium salts and was described as an electrogenic process, i.e. the transmembrane transport of an ion without the balance of the charge through the movement of another ion, which usually results in a charge transfer. […] […]. The transport of H^+/OH^− ions across the membrane is an electrogenic mechanism that usually causes the depolarization of the electrochemical gradient across phospholipid membranes. When EYPC-LUVs liposomes containing intravesicular K^+ ions are bathing in an extravesicular solution containing Na^+ ions a small membrane potential is generated at their membranes, and the fluorescence of Safranin-O can be used as a membrane potential probe. […].
Experimental. […] The fluorescence was monitored for 350 s.

A short description of data set [5]: HPTS assay, internal pH of EYPC liposomes. Conditions: 5 mM (50 mol% relative to 10 mM EYPC), NaOH pulse at 300 s. The method, then: as §1

Usually IC50 stands for the point on the concentration scale where inhibition reaches its midpoint. Read a high IC50 as weaker potency. As for `N=C(N)NC(=N)NCc1ccc(C#Cc2ccccc2)cc1` [1b, 4-(phenylethynyl)benzylbiguanide], the “Crossing to the trans-aqueous side of the U-tube (in words)” value in data set [1] is “able to partition rapidly into the chloroform and cross to the trans-aqueous side”. Moreover, in data set [1] (48h), the “Trans-side concentration, mean” value is 64,7 µM; the “Trans-side concentration, single replicates” value is 90,1 µM and 57,1 µM and 46,8 µM. Moreover, in data set [1] (72h), the “Trans-side concentration, mean” value is 92,3 µM; the “Trans-side concentration, single replicates” value is 78,6 µM and 99,3 µM and 99,1 µM. The compound also registered an IC50 in data set [2] of 15 µM. The “Growth inhibition of NB508 cells” value in data set [3] is “most important antiproliferative activities”. The “Chloride transport across EYPC-LUV membrane” value in data set [4] is reported as “did not transport chloride”. Also, the “Change of internal vesicular pH (HPTS)” value in data set [5] is “basification of the internal vesicular pH”.
For `CN(C)C(=N)NC(=N)N` [metformin, 1,1-dimethylbiguanide, reference compound], the “Crossing to the trans-aqueous side of the U-tube (in words)” value in data set [1] is recorded as “only traces”. The concentration for half-maximal inhibition (IC50) in data set [2] is around 5000 µM. Moreover, the “Growth inhibition of NB508 cells” value in data set [3] is “no effect was observed”. The “Change of internal vesicular pH (HPTS)” value in data set [5] is given as “no membrane activity”.
